Measured values from patent publication US12409174B2, “Combination of zibotentan and dapagliflozin for the treatment of endothelin related diseases” (priority 2020, dated 2025).

Columns and labels:
[1] = test system: male Wistar rats fed a 4% salt diet; assay: Effect of zibotentan and dapagliflozin on kidney and heart weight, Experiment 2; assay type: in vivo; details: Exp 2
Procedure: (§1) In the second experiment (Experiment 2), the effect of zibotentan and dapagliflozin (alone or in combination) on Hct concentration and Hb was determined. Seventy-two animals were randomized on BW and Hct concentration, 2 to 3 days prior to administration of study drugs into the following groups; 1) Vehicle, 2) Zibotentan (30 mg/kg), 3) Zibotentan (100 mg/kg), 4) Dapagliflozin (3 mg/kg), 5) Zibotentan (30 mg/kg)+Dapagliflozin (3 mg/kg) and 6) Zibotentan (100 mg/kg)+Dapagliflozin (3 mg/kg). For practical reasons, the study was conducted in two consecutive slots with 36 animals (6/group) in each slot. Compounds were administered p.o. QD for seven days. Blood samples for bioanalysis were collected at 4 and 24 hr after the first dose and 24 hr after the final dose for Hct concentration and Hb analysis on day three and seven as described for exp.1. Twenty-four hour urine was collected between the third and fourth dose. 24 hr food and water intake was measured between day 2-3 and between day 6-7. With two animals per cage, food intake and water intake per animal in a cage was assessed by dividing the food intake and water intake of a cage by two.
(§2) The data for each feature measured was checked for a normal distribution and where appropriate a log transformation was applied to data with a non-normal distribution using R. Since the data were grouped by one factor Zibotentin doses or combined therapy, a one-way ANOVA was used to analyse traits measured at a single time point (GraphPad version 8 or R statistics package emmeans) and a linear mixed effects model (nlme package) in R was used to analyse multiple measures data for body weight. The differences between groups were tested using either a Dunnett test (emmeans package in R or GraphPad v8) when comparing treated groups to the vehicle group or a Tukey comparison (emmeans package in R or Graphpad v8.) for specific pairwise comparisons of treated groups. All model assumptions were checked using the model diagnostic plots in R statistics. Results are expressed as the Mean±standard error of the Mean (SEM) for pharmacodynamic parameters and Mean±standard deviation (SD) for compound concentration in blood and urine. Significance was set at p<0.05.

[2] = test system: male Wistar rats fed a 4% salt diet; assay: Effect of zibotentan, dapagliflozin and the combination on Hct, Experiment 2; assay type: in vivo; set-up: key to Hct levels, difference in means (estimate): difference in log-transformed Hct means, treated minus vehicle; Hct levels, Difference / Difference in Hct means: unit not given here; details: Exp 2; for Difference in Hct means: all time points; for Hct levels, difference in means (estimate): log scale
Procedure: as §1
(§3) For Hct and Hb analysis, 100 μl of blood from rat's tail vein was collected and measured using CG8 cartridges analysed with an iSTAT instrument (Abbott Point of Care Inc, Abbot Park, IL, USA).
as §2
The Hct data were analysed using a linear mixed effects model to estimate the marginal means and standard deviations within the vehicle and treated groups estimated at day 3, day 7 and overall for the entire study for post hoc comparisons. Treatment groups were compared to the vehicle to determine whether there were effects on Hct compared to the vehicle treated control group (Dunnett test), and the zibotentan treated groups were compared to zibotentan plus dapagliflozin groups (using a Tukey test) to determine if the combined therapy mitigated the effect of zibotentan on Hct.

[3] = test system: male Wistar rats fed a 4% salt diet; assay: Effect of zibotentan and dapagliflozin on Hb, Experiment 2; assay type: in vivo; details: Exp 2; for Basal Hb: baseline
Procedure: as §1, §3, §2

[4] = Amount of dapagliflozin and zibotentan excreted in urine, Experiment 2; details: Exp 2, urine collected between days 3 and 4
Procedure: as §1

[5] = test system: male Wistar rats fed a 4% salt diet; assay: 24 hr water and food intake, Experiment 2; assay type: in vivo; details: Exp 2; FIG. 8B and FIG. 8C
Procedure: as §1

[6] = test system: male Wistar rats fed a 4% salt diet; assay: Effect on plasma Na, K, glucose, urea and creatinine concentration, Experiment 2; details: Exp 2
Procedure: as §1
(§4) Plasma and Urine Albumin, Creatinine, Glucose, Urea, Potassium and Sodium levels were analyzed using an ABX Pentra 400 instrument (Horiba Medical, Irvine, California, USA) according to the manufacturers protocol.
as §2

[7] = Effect of zibotentan, dapagliflozin and the combination on body weight, Experiment 2; details: Exp 2; for Prevention of BW gain compared to vehicle: administration period 7 days, FIG. 7
Procedure: as §1, §2
To assess the effect of the combined therapy on weight loss, body weight was measured every day and was compared using a linear mixed effects model.

[8] = test system: male Wistar rats fed a 4% salt diet; assay: Effect on urinary volume, glucose, Na, K, urea and creatinine in the urine, Experiment 2; assay type: in vivo; details: Exp 2; for Urine Creatinine / Urine K / Urine Na / Urine Urea / Urine volume: 24 hr urine between third and fourth dose; for Urine glucose excretion: FIG. 8A
Procedure: as §1, §4, §2

SMILES: CCOc1ccc(Cc2cc([C@@H]3O[C@H](CO)[C@@H](O)[C@H](O)[C@H]3O)ccc2Cl)cc1 [Dapa, (1S)-1,5-anhydro-1-{4-chloro-3-[(4-ethoxyphenyl)methyl]phenyl}-D-glucitol]
- Heart weight ([1]; Dapa 3 mg/kg p.o. QD 7 days): 0.85 g
- Heart/tibia length ([1]; Dapa 3 mg/kg p.o. QD 7 days): 22.08 mg/mm
- Kidney weight ([1]; Dapa 3 mg/kg p.o. QD 7 days): 2.01 g
- Kidney/tibia length ([1]; Dapa 3 mg/kg p.o. QD 7 days): 51.96 mg/mm
- Difference in Hct means ([2]; Dapa 3 mg/kg vs Vehicle): 0.01
- Hct levels, difference in means (estimate) ([2]; day 3, Dapa 3.0 mg/kg vs Vehicle): 0.03
- Hct levels, Difference ([2]; day 7, Dapa 3.0 mg/kg vs Vehicle): 0.01
- Day 3 Hb ([3]; Dapa 3 mg/kg p.o. QD): 164.4 g/L
- Day 7 Hb ([3]; Dapa 3 mg/kg p.o. QD): 159.1 g/L
- Basal Hb ([3]; group Dapa 3 mg/kg): 157.9 g/L
- Amount of dapagliflozin excreted in urine ([4]; Dapa 3 mg/kg p.o. QD): 0.198 µmol
- Water and food intake compared to vehicle [5]: increased
- Plasma Na, K, glucose, urea concentrations compared to vehicle [6]: unaltered
- Plasma Creatinine ([6]; Dapa 3 mg/kg p.o. QD 7 days): 14.62 µM
- Plasma Glucose ([6]; Dapa 3 mg/kg p.o. QD 7 days): 8.98 mmol/L
- Plasma K ([6]; Dapa 3 mg/kg p.o. QD 7 days): 3.68 mmol/L
- Plasma Na ([6]; Dapa 3 mg/kg p.o. QD 7 days): 137.6 mmol/L
- Plasma Urea ([6]; Dapa 3 mg/kg p.o. QD 7 days): 4.34 mmol/L
- Changes in body weight over the entire study, Difference ([7]; Dapa 3 mg/kg vs Vehicle): −0.03
- Prevention of BW gain compared to vehicle [7]: prevented this BW gain
- 24-hour urine volume and urea excretion compared to vehicle [8]: increased
- Urine Na, K and creatinine compared to vehicle [8]: No change
- Urine Creatinine ([8]; Dapa 3 mg/kg p.o. QD): 76.42 µmol
- Urine K ([8]; Dapa 3 mg/kg p.o. QD): 1.40 mmol
- Urine Na ([8]; Dapa 3 mg/kg p.o. QD): 12.60 mmol
- Urine Urea ([8]; Dapa 3 mg/kg p.o. QD): 7.43 mmol
- Urine volume ([8]; Dapa 3 mg/kg p.o. QD): 43.13 mL
- Urine glucose excretion [8]: significantly increased

SMILES: COc1nc(C)cnc1NS(=O)(=O)c1cccnc1-c1ccc(-c2nnco2)cc1 [Zibo, N-(3-methoxy-5-methylpyrazin-2-yl)-2-[4-(1,3,4-oxadiazol-2-yl)phenyl]pyridine-3-sulfonamide]
- Heart weight ([1]; Zibo 30 mg/kg p.o. QD 7 days): 0.96 g
- Heart/tibia length ([1]; Zibo 30 mg/kg p.o. QD 7 days): 24.75 mg/mm
- Kidney weight ([1]; Zibo 30 mg/kg p.o. QD 7 days): 2.05 g
- Kidney/tibia length ([1]; Zibo 30 mg/kg p.o. QD 7 days): 52.49 mg/mm
- Heart weight compared to vehicle, with or without normalizing to tibia length ([1]; Zibo 30 mg/kg, seven days): increased
- Heart weight ([1]; Zibo 100 mg/kg p.o. QD 7 days): 0.93 g
- Heart/tibia length ([1]; Zibo 100 mg/kg p.o. QD 7 days): 23.82 mg/mm
- Kidney weight ([1]; Zibo 100 mg/kg p.o. QD 7 days): 1.90 g
- Kidney/tibia length ([1]; Zibo 100 mg/kg p.o. QD 7 days): 48.20 mg/mm
- Difference in Hct means ([2]; Zibo 30 mg/kg vs Vehicle): −0.05
- Difference in Hct means ([2]; Zibo 100 mg/kg vs Vehicle): −0.06
- Hct levels, difference in means (estimate) ([2]; day 3, Zibo 30 mg/kg vs Vehicle): −0.10
- Hct levels, difference in means (estimate) ([2]; day 3, Zibo 100 mg/kg vs Vehicle): −0.08
- Hct compared to vehicle ([2]; day 3, zibotentan 30 and 100 mg/kg with or without dapagliflozin 3 mg/kg): decreased
- Hct levels, Difference ([2]; day 7, Zibo 30 mg/kg vs Vehicle): −0.06
- Hct levels, Difference ([2]; day 7, Zibo 100 mg/kg vs Vehicle): −0.08
- Hct compared to vehicle ([2]; day 7, zibotentan 30 and 100 mg/kg alone): decreased
- Effect on Hct concentration ([2]; zibotentan 100 mg/kg alone, 7 days, one way ANOVA, Tukey): −4.00±0.87
- Hct concentration ([2]; zibotentan 30 or 100 mg/kg, 7 days administration): significantly decreased
- Day 3 Hb ([3]; Zibo 30 mg/kg p.o. QD): 144.4 g/L
- Day 7 Hb ([3]; Zibo 30 mg/kg p.o. QD): 148.6 g/L
- Day 3 Hb ([3]; Zibo 100 mg/kg p.o. QD): 147.5 g/L
- Day 7 Hb ([3]; Zibo 100 mg/kg p.o. QD): 144.8 g/L
- Basal Hb ([3]; group Zibo 30 mg/kg): 160.2 g/L
- Basal Hb ([3]; group Zibo 100 mg/kg): 158.5 g/L
- Amount of zibotentan excreted in urine ([4]; Zibo 30 mg/kg p.o. QD): 2.17 µmol
- Amount of zibotentan excreted in urine ([4]; Zibo 100 mg/kg p.o. QD): 3.21 µmol
- Water and food intake compared to vehicle [5]: unchanged
- Plasma Na, K, glucose, urea concentrations compared to vehicle [6]: unaltered
- Plasma Creatinine ([6]; Zibo 30 mg/kg p.o. QD 7 days): 17.58 µM
- Plasma Glucose ([6]; Zibo 30 mg/kg p.o. QD 7 days): 8.96 mmol/L
- Plasma K ([6]; Zibo 30 mg/kg p.o. QD 7 days): 4.17 mmol/L
- Plasma Na ([6]; Zibo 30 mg/kg p.o. QD 7 days): 139.1 mmol/L
- Plasma Urea ([6]; Zibo 30 mg/kg p.o. QD 7 days): 4.47 mmol/L
- Plasma creatinine compared to vehicle ([6]; Zibo 100 mg/kg monotreatment or in combination with Dapa 3 mg/kg, p<0.05): significantly increase
- Plasma Creatinine ([6]; Zibo 100 mg/kg p.o. QD 7 days): 18.08 µM
- Plasma Glucose ([6]; Zibo 100 mg/kg p.o. QD 7 days): 8.73 mmol/L
- Plasma K ([6]; Zibo 100 mg/kg p.o. QD 7 days): 4.13 mmol/L
- Plasma Na ([6]; Zibo 100 mg/kg p.o. QD 7 days): 138.4 mmol/L
- Plasma Urea ([6]; Zibo 100 mg/kg p.o. QD 7 days): 4.25 mmol/L
- Changes in body weight over the entire study, Difference ([7]; Zibo 30 mg/kg vs Vehicle): 0.01
- Changes in body weight over the entire study, Difference ([7]; Zibo 100 mg/kg vs Vehicle): 0.01
- Prevention of BW gain compared to vehicle [7]: did not
- 24-hour urine volume and urea excretion compared to vehicle [8]: No difference
- Urine Na, K and creatinine compared to vehicle [8]: No change
- Urine glucose excretion [8]: no effect
- Urine Creatinine ([8]; Zibo 30 mg/kg p.o. QD): 71.33 µmol
- Urine K ([8]; Zibo 30 mg/kg p.o. QD): 1.27 mmol
- Urine Na ([8]; Zibo 30 mg/kg p.o. QD): 10.67 mmol
- Urine Urea ([8]; Zibo 30 mg/kg p.o. QD): 4.61 mmol
- Urine volume ([8]; Zibo 30 mg/kg p.o. QD): 19.08 mL
- Urine Creatinine ([8]; Zibo 100 mg/kg p.o. QD): 68.18 µmol
- Urine K ([8]; Zibo 100 mg/kg p.o. QD): 1.16 mmol
- Urine Na ([8]; Zibo 100 mg/kg p.o. QD): 10.03 mmol
- Urine Urea ([8]; Zibo 100 mg/kg p.o. QD): 4.11 mmol
- Urine volume ([8]; Zibo 100 mg/kg p.o. QD): 19.08 mL
